Measured values reported in patent US20080293583A1, “Methods for diagnosing mood disorders” (Wyeth, priority 2003, published 2008).

Test system: progenitor stem cells in the subgranular zone (SGZ) of the hippocampus
Test: BrdU immunostaining, cell proliferation in hippocampal SGZ after chronic antidepressant
Assay type: in vivo, rat
Conditions: P<0.01; for number of proliferating (BrdU-positive) cells in the SGZ compared with saline-treated control rats: FIG. 1A, chronic administration; for increase in the proliferation rate of progenitor stem cells in the SGZ: versus saline controls, 2 week systemic administration, BrdU twice a day for 4 days, n=5
Procedure: Antidepressant treatment and BrdU dosing. Dosing of adult male Sprague Dawley rats was performed as described above for 14 days (n=10 rats per group). To evaluate the effect of chronic antidepressant treatment on proliferation of progenitor stem cells, 24 hours after the last antidepressant injection, rats were administered BrdU (Sigma, St. Louis, Mo.) (50 mg/kg rig ip injection twice a day) for 4 days prior to euthanesia. To evaluate the effect of chronic antidepressant treatment on survival of progenitor stem cells, a sub-group of rats were allowed to live for 4 weeks after BrdU injection. All rats were perfused through the ascending aorta with 50 ml of 0.9% saline, followed by 400 ml of freshly prepared 4% paraformaldehyde in PBS (pH 7.5). After 30-60 minutes post-perfusion, rat brains were removed and postfixed in 4% paraformaldehyde in PBS overnight, followed by immersion in 30% sucrose/PBS solution for 48-72 hours at 4° C. Brains were rapidly frozen on dry-ice and stored at −80° C. Brain sectioning and staining for BrdU immunoreactivity were performed as previously described by Malberg et al. (2000). Briefly, serial coronal sections of each brain were cut (35 μm thickness) through the entire hippocampus (stereotaxic plates 26-40 according to Paxinos, Watson and Emson, 1980) using a freezing microtome. Every sixth section throughout the hippocampus was processed for BrdU staining. Free-floating sections were maintained in 100 mM PBS (about 100 sections per brain). DNA denaturation of the sections was performed as follows: sections were treated with 50% formamide/50% 2×SSC (0.3 M NaCl/0.03 M sodium citrate) for 2 hours at 65° C., rinsed in PBS (2 times for 5 minutes at room temperature), incubated with 2 N HCl for 30 minutes, followed by 0.1 M boric acid buffer (pH 8.5) for 10 minutes and a final rinse in PBS. For BrdU immunostaining, sections were incubated with 3% H2O2 in PBS for 30 minutes, rinsed in PBS and blocked with 3% normal horse serum in 0.01% TritonX-100 for 30 minutes. […] All BrdU labeled cells in the subgranular zone (SGZ) were counted in each section by an experimenter blinded to the study code. […] The total number of BrdU labeled cells per section were determined and multiplied by 12 to obtain the total number of cells per dentate gyrus. […]
In vivo studies were performed to measure the effects of antidepressant drug treatment on adult hippocampal neurogenesis by immunological methods. […] The BrdU immunostaining and quantitative results indicated a significant increase (˜33%) in the proliferation rate of progenitor stem cells in the subgranular zone (SGZ) of the hippocampus for both venlafaxine (P<0.01; n=5) and fluoxetine (P<0.01; n=5) versus saline controls. […]

SMILES | number of proliferating (BrdU-positive) cells in the SGZ compared with saline-treated control rats | increase in the proliferation rate of progenitor stem cells in the SGZ [%]
CNCCC(Oc1ccc(C(F)(F)F)cc1)c1ccccc1 (stereo not shown) [Fluoxetine, fluoxetine] | increased the number of proliferating cells in the SGZ | ~33
COc1ccc(C(CN(C)C)C2(O)CCCCC2)cc1 (stereo not shown) [Venlafaxine, venlafaxine] | increased the number of proliferating cells in the SGZ | ~33
